Source: patent US12252524B2, “GIP/GLP1 co-agonist compounds” (Eli Lilly and Company, priority 2018, dated 2025)
Numbered stars: 1 amine (or outer) side, 2 acyl side, 3 side chain; on linkers, the order of the positions; unused ones are H or OH. Square brackets hold non-standard residues; d marks the D form. Side chains are listed from the residue outwards. Peptide text beside a SMILES is read from it. * marks the point of attachment. C20 diacid = O=C(O)CCCCCCCCCCCCCCCCCCC(=O)*; C18 diacid = O=C(O)CCCCCCCCCCCCCCCCC(=O)*; γGlu = O=C(O)[C@H](CCC(=O)[*:2])N[*:1]; αMeF = C[C@](N)(Cc1ccccc1)C(=O)O; αMeL = CC(C)C[C@](C)(N)C(=O)O; AEEA = NCCOCCOCC(=O)O; Aib = CC(C)(N)C(=O)O

How the values were obtained:
[1] = target: T1, human Gcg receptor (Homo sapiens, UniProt P47871); assay: [125I]-Glucagon binding (SPA), human Gcg receptor; details: read-out: hGLcgR Ki, nM (SEM, n)
T1 construct: expressed in transfected cells; crude membranes
Summary of the method: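 Cell pellets were lysed in hypotonic Tris buffer, pH 7.5, homogenized, and spun at low then high speed to give crude membranes. Ki was derived from the fitted IC50.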

[2] = target: T2, human GIP receptor (Homo sapiens, UniProt P48546); assay: [125I]-GIP binding (SPA), human GIP receptor; details: read-out: hGIPR Ki, nM (SEM, n)
T2 construct: expressed in transfected cells; crude membranes
T2 sequence (P48546 22-466): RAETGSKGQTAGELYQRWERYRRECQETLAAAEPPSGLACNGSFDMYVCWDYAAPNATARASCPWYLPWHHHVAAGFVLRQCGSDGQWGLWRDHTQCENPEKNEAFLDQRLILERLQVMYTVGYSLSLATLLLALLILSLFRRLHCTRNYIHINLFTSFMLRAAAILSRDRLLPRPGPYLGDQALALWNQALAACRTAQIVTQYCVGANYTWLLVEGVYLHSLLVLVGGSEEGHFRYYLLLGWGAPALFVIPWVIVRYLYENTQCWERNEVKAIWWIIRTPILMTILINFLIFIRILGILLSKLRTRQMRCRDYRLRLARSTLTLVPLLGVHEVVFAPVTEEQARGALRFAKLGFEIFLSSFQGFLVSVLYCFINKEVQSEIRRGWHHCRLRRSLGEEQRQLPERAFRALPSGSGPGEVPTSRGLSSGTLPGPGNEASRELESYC

[3] = target: human GLP-1 receptor (GLP-1R) (Homo sapiens, UniProt P43220); assay: cAMP pharmacological functional assay in presence of casein, hGLP-1R; assay type: cell-based; details: HEK293 cells expressing hGLP-1R, 0.1% Casein, geometric mean; read-out: hGLP1R cAMP Rel EC50 nM (SEM, n)
[4] = target: T3, gastric inhibitory peptide receptor (GIPR) (Homo sapiens, UniProt P48546); assay: cAMP pharmacological functional assay in presence of casein, hGIPR; assay type: cell-based; details: HEK293 cells expressing hGIPR, 0.1% Casein, geometric mean; read-out: hGIPR cAMP Rel EC50 nM (SEM, n)
T3 sequence (P48546 22-466): T2 sequence (P48546 22-466)

[5] = target: human GLP-1R (Homo sapiens, UniProt P43220); assay: GLP-1R HEK293 cell membrane [35S]GTPγS binding assay; assay type: biochemical; parameters: expressed in transfected cells; host or cells: HEK293 cells expressing human GLP-1R; membranes; details: HEK293 cell membranes expressing human GLP-1R, [35S]GTPγS binding; read-out: hGLP1R GTPgS Rel EC50 nM (SEM, n)
Summary of the method: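 Agonist-driven Gαs activation read as [35S]GTPγS ([…]) binding to receptor-expressing HEK293 membranes, 30 min at room temperature, pH 7.4. Detection by anti-Gαs immunocapture on scintillation beads; EC50 derived from four-parameter logistic concentration-response fit.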

Chain of human GLP-1R (P43220 24-463): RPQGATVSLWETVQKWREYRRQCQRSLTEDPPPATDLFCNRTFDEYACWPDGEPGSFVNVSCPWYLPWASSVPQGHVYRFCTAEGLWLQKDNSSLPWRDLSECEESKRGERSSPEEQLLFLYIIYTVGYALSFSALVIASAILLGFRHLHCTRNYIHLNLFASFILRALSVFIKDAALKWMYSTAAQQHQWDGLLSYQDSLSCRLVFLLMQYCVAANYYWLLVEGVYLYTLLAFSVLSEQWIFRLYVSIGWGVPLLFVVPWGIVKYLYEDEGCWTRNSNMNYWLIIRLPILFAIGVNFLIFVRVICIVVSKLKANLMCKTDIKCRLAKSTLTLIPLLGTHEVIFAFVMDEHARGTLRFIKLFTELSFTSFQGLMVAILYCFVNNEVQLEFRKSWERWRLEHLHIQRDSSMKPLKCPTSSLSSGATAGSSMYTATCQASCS
Chain of human GLP-1 receptor (GLP-1R) (P43220 24-463): as above
T1 sequence (P47871 26-477): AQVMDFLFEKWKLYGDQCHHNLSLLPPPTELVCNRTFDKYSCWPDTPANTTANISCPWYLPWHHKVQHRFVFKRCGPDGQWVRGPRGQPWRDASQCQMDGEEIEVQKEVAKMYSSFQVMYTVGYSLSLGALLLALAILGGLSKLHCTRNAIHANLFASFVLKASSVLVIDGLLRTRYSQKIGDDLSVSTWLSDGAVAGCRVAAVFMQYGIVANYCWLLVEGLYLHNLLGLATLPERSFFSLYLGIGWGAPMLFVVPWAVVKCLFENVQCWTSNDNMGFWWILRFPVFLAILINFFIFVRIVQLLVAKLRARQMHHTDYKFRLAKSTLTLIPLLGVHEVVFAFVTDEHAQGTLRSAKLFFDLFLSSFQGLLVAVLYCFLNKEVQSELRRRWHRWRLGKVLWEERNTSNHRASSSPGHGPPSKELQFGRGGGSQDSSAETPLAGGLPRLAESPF

SMILES | Ki [1] [nM] | Ki [2] [nM] | EC50 [3] [nM] | EC50 [4] [nM] | EC50 [5] [nM]
CC[C@H](C)[C@H](NC(=O)[C@H](CC(C)C)NC(=O)[C@H](Cc1ccc(O)cc1)NC(=O)[C@H](CCC(=O)O)NC(=O)[C@@H](NC(=O)[C@H](Cc1ccccc1)NC(=O)[C@H](CCC(=O)O)NC(=O)C(C)(C)NC(=O)[C@H](CCC(N)=O)NC(=O)[C@H](C)NC(=O)[C@H](CCCCNC(=O)COCCOCCNC(=O)COCCOCCNC(=O)CC[C@H](NC(=O)CCCCCCCCCCCCCCCCCCC(=O)O)C(=O)O)NC(=O)[C@H](CCCCN)NC(=O)[C@H](CC(=O)O)NC(=O)[C@H](CC(C)C)NC(=O)[C@](C)(CC(C)C)NC(=O)[C@@H](NC(=O)[C@H](CO)NC(=O)[C@H](Cc1ccc(O)cc1)NC(=O)[C@H](CC(=O)O)NC(=O)[C@H](CO)NC(=O)[C@@H](NC(=O)[C@H](Cc1ccccc1)NC(=O)[C@@H](NC(=O)CNC(=O)[C@H](CCC(=O)O)NC(=O)C(C)(C)NC(=O)[C@@H](N)Cc1ccc(O)cc1)[C@@H](C)O)[C@@H](C)O)[C@@H](C)CC)[C@@H](C)CC)C(=O)N[C@@H](C)C(=O)NCC(=O)NCC(=O)N1CCC[C@H]1C(=O)N[C@@H](CO)C(=O)N[C@@H](CO)C(=O)NCC(=O)N[C@@H](C)C(=O)N1CCC[C@H]1C(=O)N1CCC[C@H]1C(=O)N1CCC[C@H]1C(=O)N[C@@H](CO)C(N)=O [Example 289] (H-Y[Aib]EGTFTSDYSI[αMeL]LDKK([AEEA-AEEA-γGlu-C20 diacid])AQ[Aib]EFIEYLIAGGPSSGAPPPS-NH2) | > 1050 | 0.0457 | 0.0544 | 0.0228 | 0.404
CC[C@H](C)[C@H](NC(=O)[C@H](CC(C)C)NC(=O)[C@H](Cc1ccc(O)cc1)NC(=O)[C@H](CCC(=O)O)NC(=O)[C@@H](NC(=O)[C@H](Cc1ccccc1)NC(=O)[C@H](C)NC(=O)C(C)(C)NC(=O)[C@H](CCC(N)=O)NC(=O)[C@H](C)NC(=O)[C@H](CCCCNC(=O)COCCOCCNC(=O)COCCOCCNC(=O)CC[C@H](NC(=O)CCCCCCCCCCCCCCCCC(=O)O)C(=O)O)NC(=O)[C@H](CCCCN)NC(=O)[C@H](CC(=O)O)NC(=O)[C@H](CC(C)C)NC(=O)[C@H](CC(C)C)NC(=O)[C@@H](NC(=O)[C@H](CO)NC(=O)[C@H](Cc1ccc(O)cc1)NC(=O)[C@H](CC(=O)O)NC(=O)[C@H](CO)NC(=O)[C@@H](NC(=O)[C@](C)(Cc1ccccc1)NC(=O)[C@@H](NC(=O)CNC(=O)[C@H](CCC(=O)O)NC(=O)C(C)(C)NC(=O)[C@@H](N)Cc1ccc(O)cc1)[C@@H](C)O)[C@@H](C)O)[C@@H](C)CC)[C@@H](C)CC)C(=O)N[C@@H](CCC(=O)O)C(=O)NCC(=O)NCC(=O)N1CCC[C@H]1C(=O)N[C@@H](CO)C(=O)N[C@@H](CO)C(=O)NCC(N)=O [Example 301] (H-Y[Aib]EGT[αMeF]TSDYSILLDKK([AEEA-AEEA-γGlu-C18 diacid])AQ[Aib]AFIEYLIEGGPSSG-NH2) | 44.4 | 0.0273 | 0.0441 | 0.0346 | 0.435
CC[C@H](C)[C@H](NC(=O)[C@H](CC(C)C)NC(=O)[C@H](Cc1ccc(O)cc1)NC(=O)[C@H](CCC(=O)O)NC(=O)[C@@H](NC(=O)[C@H](Cc1ccccc1)NC(=O)[C@H](C)NC(=O)C(C)(C)NC(=O)[C@H](CCC(N)=O)NC(=O)[C@H](C)NC(=O)[C@H](CCCCNC(=O)COCCOCCNC(=O)COCCOCCNC(=O)CC[C@H](NC(=O)CCCCCCCCCCCCCCCCC(=O)O)C(=O)O)NC(=O)[C@H](CCC(=O)O)NC(=O)[C@H](CC(=O)O)NC(=O)[C@H](CC(C)C)NC(=O)[C@](C)(CC(C)C)NC(=O)[C@@H](NC(=O)[C@H](CO)NC(=O)[C@H](Cc1ccc(O)cc1)NC(=O)[C@H](CC(=O)O)NC(=O)[C@H](CO)NC(=O)[C@@H](NC(=O)[C@H](Cc1ccccc1)NC(=O)[C@@H](NC(=O)CNC(=O)[C@H](CCC(=O)O)NC(=O)C(C)(C)NC(=O)[C@@H](N)Cc1ccc(O)cc1)[C@@H](C)O)[C@@H](C)O)[C@@H](C)CC)[C@@H](C)CC)C(=O)N[C@@H](CCC(=O)O)C(=O)NCC(=O)NCC(=O)N1CCC[C@H]1C(=O)N[C@@H](CO)C(=O)N[C@@H](CO)C(=O)NCC(N)=O [Example 303] (H-Y[Aib]EGTFTSDYSI[αMeL]LDEK([AEEA-AEEA-γGlu-C18 diacid])AQ[Aib]AFIEYLIEGGPSSG-NH2) | 502 | 0.058 | 0.104 | 0.0254 | 0.547
CC[C@H](C)[C@H](NC(=O)[C@H](CC(C)C)NC(=O)[C@H](Cc1ccc(O)cc1)NC(=O)[C@H](CCC(=O)O)NC(=O)[C@@H](NC(=O)[C@H](Cc1ccccc1)NC(=O)[C@H](C)NC(=O)C(C)(C)NC(=O)[C@H](CCC(N)=O)NC(=O)[C@H](C)NC(=O)[C@H](CCCCNC(=O)COCCOCCNC(=O)COCCOCCNC(=O)CC[C@H](NC(=O)CCCCCCCCCCCCCCCCC(=O)O)C(=O)O)NC(=O)[C@H](CCCCN)NC(=O)[C@H](CC(=O)O)NC(=O)[C@H](CC(C)C)NC(=O)[C@H](CC(C)C)NC(=O)[C@@H](NC(=O)[C@H](CO)NC(=O)[C@H](Cc1ccc(O)cc1)NC(=O)[C@H](CC(=O)O)NC(=O)[C@H](CO)NC(=O)[C@@H](NC(=O)[C@H](Cc1ccccc1)NC(=O)[C@@H](NC(=O)CNC(=O)[C@H](CCC(=O)O)NC(=O)C(C)(C)NC(=O)[C@@H](N)Cc1ccc(O)cc1)[C@@H](C)O)[C@@H](C)O)[C@@H](C)CC)[C@@H](C)CC)C(=O)N[C@@H](C)C(=O)NCC(=O)NCC(=O)N1CCC[C@H]1C(=O)N[C@@H](CO)C(=O)N[C@@H](CO)C(=O)NCC(=O)N[C@@H](C)C(=O)N1CCC[C@H]1C(=O)N1CCC[C@H]1C(=O)N1CCC[C@H]1C(=O)N[C@@H](CO)C(N)=O [Example 316] (H-Y[Aib]EGTFTSDYSILLDKK([AEEA-AEEA-γGlu-C18 diacid])AQ[Aib]AFIEYLIAGGPSSGAPPPS-NH2) | 654 | 0.0418 | 0.122 | 0.024 | 0.766
